Assay [1] has as its system HCT-15 cells derived from human colon carcinoma. To be noted: Kamei and coworkers (1995); cited from earlier work.
Assay [2] deals with HT-29 colon cancer cells. Put plainly: Cell proliferation of HT-29 cells (hemacytometer count, Trypan blue exclusion). The class given is cell-based, human. To be noted: HT-29 carcinoma cells, pure anthocyanin.
Protocol: Cell Culture—Human HT-29 colon cancer cells (ATCC, HTB 38) were grown in McCoy's 5A medium (BioWhitaker Inc., Walkersville, Md.), and normal colon epithelial cells, NCM460 (INCELL Corp. LLC, Austin, Tex.) were grown in 25% conditioned M3:10 medium (INCELL Corp., LLC). Media were supplemented with 10% fetal bovine serum (FBS) and 1× antibiotic-antimycotic (Invitrogen Corporation, Carlsbad, Calif.), and cells were maintained in a humidified atmosphere of 95% air/5% CO2 at 37° C. […] Cell Proliferation—Freshly trypsinized cells were seeded in 25-cm^2 (1×10^6 cells) or 75-cm^2 (2×10^6 cells) flasks in duplicate. The cells were grown for 24 h under normal growth conditions prior to treatment with chokeberry ARE. Freshly prepared ARE was added in concentrations ranging from 10 to 200 μg monomeric anthocyanin/ml medium. A vehicle control contained acidified water and was added at the same volume as ARE added to treated cells. […] Prior to exposure to ARE for 24 h, 48 h or 72 h treatments, the medium was replaced with fresh medium (10% FBS) containing either vehicle control (acidified water) or ARE. For each time point, the cells were trypsinized and centrifuged at 400 g for 10 min at room temperature. Aliquots of cells were counted using a hemacytometer and viability measured using Trypan blue dye exclusion.

Here are results for four compounds from US8034388B2, “Anthocyanin-rich compositions and methods for inhibiting cancer cell growth” (The University of Maryland, priority 2003, dated 2011).

Each structure is given as a SMILES string.

Take `Oc1cc(O)c2cc(O)c(-c3ccc(O)c(O)c3)[o+]c2c1` [cyanidin, Cyanidin]: in assay [1], the “dose for 50% cell growth suppression” value is 2 µg/mL.

As to `OC[C@H]1O[C@@H](Oc2cc3c(O)cc(O)cc3[o+]c2-c2ccc(O)c(O)c2)[C@H](O)[C@@H](O)[C@H]1O` [cyanidin-3-galactoside], in assay [2], the “cancerous colonic cell growth (visual observations of cell growth and viability)” value is on record as “notably inhibited”. On to `Oc1cc(O)c2cc(O)c(-c3cc(O)c(O)c(O)c3)[o+]c2c1` [delphinidin, Delphinidin], for which, in assay [1], the “dose for 50% cell growth suppression” value is 0.5 µg/mL.

Regarding `Oc1ccc(-c2[o+]c3cc(O)cc(O)c3cc2O)cc1` [pelargonidin, Pelargonidin], the “dose for 50% cell growth suppression” value in assay [1] was 5 µg/mL.
